Results on 39 molecules are retold here after patent US6140354A, “N-substituted aminotetralins as ligands for the neuropeptide Y Y5 receptor useful in the treatment of obesity and other disorders” (Ortho-McNeil Pharmaceutical, Inc., priority 1999, dated 2000).

The assay deals with T1, human neuropeptide Y5 receptor (Homo sapiens, UniProt Q15761).
T1 construct: expressed in transfected cells
T1 sequence (Q15761 1-445): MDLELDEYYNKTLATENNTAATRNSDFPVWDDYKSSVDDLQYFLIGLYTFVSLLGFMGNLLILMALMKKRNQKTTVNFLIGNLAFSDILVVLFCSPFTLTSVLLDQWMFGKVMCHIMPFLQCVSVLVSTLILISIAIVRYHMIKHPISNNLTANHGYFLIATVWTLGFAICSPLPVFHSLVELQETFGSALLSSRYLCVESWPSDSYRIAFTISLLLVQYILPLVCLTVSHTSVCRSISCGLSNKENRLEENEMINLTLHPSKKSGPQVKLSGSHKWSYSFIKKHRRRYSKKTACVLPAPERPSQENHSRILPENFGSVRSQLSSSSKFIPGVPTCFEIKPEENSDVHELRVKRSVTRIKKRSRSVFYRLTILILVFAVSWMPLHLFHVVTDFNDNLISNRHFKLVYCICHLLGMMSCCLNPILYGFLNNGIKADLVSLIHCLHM
As to the kind of experiment: NPY5 HTS Centrifugation Assay: competition with 125I-PYY for binding to NPY5-transfected HEK293 cell membranes. Conditions: 80 pM 125I-PYY, 1 hr room temperature, read-out: % Inh @ 3 uM (% Inhibition of ^125 I-PYY Binding). As to the method: The compounds described in this invention were evaluated for binding to the human neuropeptide Y5 receptor.
The human NPY5 receptor cDNA (Genbank Accession number U66275) was inserted into the vector pClneo (Invitrogen) and transfected into human embryonic kidney cells (HEK-293) via Calcium phosphate method (Cullen 1987). Stably transfected cells were selected with G-418 (600 ug/mL). Stably transfected cells served as the source for the membranes for the NPY5 receptor binding assay.
NPY5-transfected HEK293 cells were grown to confluence in 150 cm^2 culture dishes. Cells were washed once with phosphate-buffered saline (Gibco Cat#14040-133). Cells were then incubated in phosphate-buffered saline without Calcium and without Magnesium, supplemented with 2 mM EDTA. Cells were incubated for 10 minutes at room temperature and the cells were collected by repetitive pipeting. Cells were formed into pellets and then frozen at -80 until needed. Frozen pellets were homogenized with a polytron at full speed for 12 seconds in a homogenization buffer (20 mM Tris HCl, 5 mM EDTA, pH 7.4). Homogenates were centrifuged for 5 minutes at 4C at 200 g. Supernatants were transferred to corex tubes and centrifuged for 25 minutes at 28,000 g. Pellets were re-suspended in Binding (20 mM HEPES, 10 mM NaCl, 0.22 mM KH2 PO4, 1.3 mM CaCl2, 0.8 mM MgSO4, pH 7.4). Membranes were kept on ice until use.
A competition binding assay, known to those skilled in the art, was used in which aminotetralins (I) compete with ^125 I-PYY for binding to cell membranes. In simple terms, the less ^125 I-PYY bound to the membranes implies that a compound is a good inhibitor (competitor). Bound ^125 I-PYY is determined by centrifugation of membranes, aspirating supernatant, washing away residual ^125 I-PYY and subsequently counting the bound sample in a g-counter.
Compounds to be tested were prepared as 10× stocks in binding buffer and added first to assay tubes (RIA vials, Sarstedt). Twenty (20) μL of each 10× compound stock is pipeted into vials and 80 μL of ^125 I-PYY (NEN catalog number NEX240), which has been diluted to a concentration of 200 pM in 0.25% BSA in binding buffer, is added to the compound tubes (final concentration of ^125 I-PYY is 80 pM). To each tube is added 100 μL of membranes and the mixture is agitated by pipeting 2 times. Samples are incubated for 1 hr at room temperature. Aluminum cast plates (Sarstedt) containing the vials are then centrifuged 10 minutes at 3200 rpm in a Sorvall RT6000. Supernatant is then aspirated. To each vial 400 μL PBS is added and this is then aspirated again. Vials are then put in carrier polypropylene 12×75 tube and counted in gamma counter (Packard). Non-specific binding is determined in the presence of 300 nM NPY. Percent inhibition of ^125 I-PYY binding is calculated by subtracting non-specific binding from the test samples (compound (I)), taking these counts and dividing by total binding, and multiplying by 100. Inhibitory concentration values (IC50) of compounds that show appreciable inhibition of ^125 I-PYY binding are calculated by obtaining percent inhibition of ^125 I-PYY binding values at different concentrations of the test compound, and using a graphing program such as GraphPad Prism (San Diego, Calif.) to calculate the concentration of test compound that inhibits fifty-percent of ^125 I-PYY binding (Table 4). These operations are known to those skilled in the art.
A word on the inhibition: it is the change of the read-out against control, counted positive when it falls. For the molecule `COc1ccc2c(c1)CCC(NC[C@H]1CC[C@H](CNS(=O)(=O)c3ccccc3)CC1)C2Cc1ccccc1OC` (relative stereo) [Compound 85], the inhibition at 3 µM was 74%.

For `COc1ccc2c(c1)CCC(NC[C@H]1CC[C@H](CNS(=O)(=O)c3ccccc3[N+](=O)[O-])CC1)C2Cc1ccc([N+](=O)[O-])cc1` (relative stereo) [Compound 88], the inhibition at 3 µM stood at 85%.

`COc1ccc2c(c1)CCC(NC[C@H]1CC[C@H](CNS(=O)(=O)c3ccccc3)CC1)C2Cc1c(F)cccc1F` (relative stereo) [Compound 89]: the inhibition at 3 µM came to 98%.

Regarding `COc1ccc2c(c1)CCC(NC[C@H]1CC[C@H](CNS(=O)(=O)c3ccccc3[N+](=O)[O-])CC1)C2Cc1c(F)cccc1F` (relative stereo) [Compound 90], the inhibition at 3 µM was 97%.

`COc1ccc2c(c1)CCC(NC[C@H]1CC[C@H](CNS(=O)(=O)c3ccccc3)CC1)C2Cc1ccccc1Cl` (relative stereo) [Compound 95]: the inhibition at 3 µM came out at 84%.

Consider `COc1ccc2c(c1)CCC(NC[C@H]1CC[C@H](CNS(=O)(=O)c3ccccc3)CC1)C2Cc1ccc(Cl)cc1` (relative stereo) [Compound 97], for which the inhibition at 3 µM is 90%.

Consider `O=S(=O)(NC[C@H]1CC[C@H](CNC2CCc3cc(F)ccc3C2Cc2ccccc2)CC1)c1ccccc1` (relative stereo) [Compound 103], for which the inhibition at 3 µM worked out at 98%.

`O=S(=O)(NC[C@H]1CC[C@H](CNC2CCc3c(Cl)cccc3C2Cc2ccccc2)CC1)c1ccccc1` (relative stereo) [Compound 105]: the inhibition at 3 µM amounted to 98%.

With `O=S(=O)(NC[C@H]1CC[C@H](CNC2CCc3cccc(Cl)c3C2Cc2ccccc2)CC1)c1ccccc1` (relative stereo) [Compound 106], the inhibition at 3 µM is 104%.

Consider `O=S(=O)(NC[C@H]1CC[C@H](CNC2CCc3cc(F)c(F)cc3C2Cc2ccccc2)CC1)c1ccccc1` (relative stereo) [Compound 107], for which the inhibition at 3 µM was 103%.

Turning to `COc1cc2c(cc1OC)C(Cc1ccccc1)C(NC[C@H]1CC[C@H](CNS(=O)(=O)c3ccccc3)CC1)CC2` (relative stereo) [Compound 108], the inhibition at 3 µM turned out to be 99%.

Regarding `O=S(=O)(NC[C@H]1CC[C@H](CNC2CCc3cc(O)c(O)cc3C2Cc2ccccc2)CC1)c1ccccc1` (relative stereo) [Compound 109], the inhibition at 3 µM was determined as 101%.

Turning to `O=S(=O)(NCCCCNC1CCc2ccccc2C1Cc1ccccc1)c1ccc2ccccc2c1` (stereo not drawn) [Compound 45], the inhibition at 3 µM is 58%.

On to `COc1ccc2c(c1)CCC(NCCCCCCCCNS(=O)(=O)c1ccc3ccccc3c1)C2Cc1ccccc1` (stereo not drawn) [Compound 48], for which the inhibition at 3 µM is 68%.

As to `COc1ccc2c(c1)CCC(NC1CCC(NS(=O)(=O)c3ccc4ccccc4c3)CC1)C2Cc1ccccc1` (stereo not drawn) [Compound 50], the inhibition at 3 µM was 44%.

Regarding `COc1ccc2c(c1)CCC(NC[C@H]1CC[C@H](CNS(=O)(=O)c3cccc(F)c3)CC1)C2Cc1ccccc1` (stereo partly drawn) [Compound 60], the inhibition at 3 µM is 94%.

As for `COc1ccc2c(c1)CCC(NC[C@H]1CC[C@H](CNS(=O)(=O)c3ccc(Cl)cc3Cl)CC1)C2Cc1ccccc1` (stereo partly drawn) [Compound 61], the inhibition at 3 µM came out at 94%.

Consider `COc1ccc2c(c1)CCC(NC[C@H]1CC[C@H](CNS(=O)(=O)c3cccc([N+](=O)[O-])c3)CC1)C2Cc1ccccc1` (stereo partly drawn) [Compound 62], for which the inhibition at 3 µM was found to be 95%.

On to `COc1ccc2c(c1)CCC(NC[C@H]1CC[C@H](CNS(=O)(=O)c3ccc([N+](=O)[O-])cc3)CC1)C2Cc1ccccc1` (stereo partly drawn) [Compound 63], for which the inhibition at 3 µM was 93%.

`O=[N+]([O-])c1ccccc1S(=O)(=O)NC[C@H]1CC[C@H](CNC2CCc3cc(Cl)ccc3C2Cc2ccccc2)CC1` (stereo partly drawn) [Compound 64]: the inhibition at 3 µM was found to be 93%.

`COc1ccc2c(c1)CCC(NC[C@H]1CC[C@H](CNS(=O)(=O)c3ccccc3C(F)(F)F)CC1)C2Cc1ccccc1` (stereo partly drawn) [Compound 65]: the inhibition at 3 µM amounted to 0%.

For the molecule `COc1ccc2c(c1)CCC(NC[C@H]1CC[C@H](CNS(=O)(=O)c3ccccc3CN)CC1)C2Cc1ccccc1` (stereo partly drawn) [Compound 67], the inhibition at 3 µM turned out to be 91%.

In the case of `COc1ccc2c(c1)CCC(NC[C@H]1CC[C@H](CNS(=O)(=O)c3cccc(Br)c3)CC1)C2Cc1ccccc1` (stereo partly drawn) [Compound 69], the inhibition at 3 µM was 93%.

On to `COc1ccc2c(c1)CCC(NC[C@H]1CC[C@H](CNS(=O)(=O)c3ccc(Br)cc3)CC1)C2Cc1ccccc1` (stereo partly drawn) [Compound 70], for which the inhibition at 3 µM came out at 95%.

On to `O=S(=O)(NC[C@H]1CC[C@H](CNC2CCc3cc(O)ccc3C2Cc2ccccc2)CC1)c1ccccc1` (stereo partly drawn) [Compound 71], for which the inhibition at 3 µM is 102%.

Take `O=S(=O)(NC[C@H]1CC[C@H](CNC2CCc3cc(F)ccc3C2Cc2ccccc2)CC1)c1ccc(Cl)cc1Cl` (stereo partly drawn) [Compound 76]: the inhibition at 3 µM stood at 99%.

For `O=S(=O)(NC[C@H]1CC[C@H](CNC2CCc3cc(F)ccc3C2Cc2ccccc2)CC1)c1c(Cl)cccc1Cl` (stereo partly drawn) [Compound 77], the inhibition at 3 µM was 102%.

For the molecule `O=S(=O)(NC[C@H]1CC[C@H](CNC2CCc3cc(F)ccc3C2Cc2ccccc2)CC1)c1ccc(Cl)c(Cl)c1` (stereo partly drawn) [Compound 78], the inhibition at 3 µM came out at 92%.

With `COc1ccc2c(c1)C(Cc1ccccc1)C(NC[C@H]1CC[C@H](CNS(=O)(=O)c3ccccc3)CC1)CC2` (stereo partly drawn) [Compound 79], the inhibition at 3 µM is 93%.

For the molecule `COc1cccc(CC2c3ccc(OC)cc3CCC2NC[C@H]2CC[C@H](CNS(=O)(=O)c3ccc4ccccc4c3)CC2)c1` (stereo partly drawn) [Compound 84], the inhibition at 3 µM is 82%.

Regarding `COc1ccc(CC2c3ccc(OC)cc3CCC2NC[C@H]2CC[C@H](CNS(=O)(=O)c3ccccc3)CC2)cc1` (stereo partly drawn) [Compound 86], the inhibition at 3 µM stood at 25%.

On to `COc1ccc2c(c1)CCC(NC[C@H]1CC[C@H](CNS(=O)(=O)c3ccccc3)CC1)C2Cc1ccc([N+](=O)[O-])cc1` (stereo partly drawn) [Compound 87], for which the inhibition at 3 µM came to 84%.

Take `COc1ccc2c(c1)CCC(NC[C@H]1CC[C@H](CNS(=O)(=O)c3ccccc3[N+](=O)[O-])CC1)C2Cc1ccccc1OC` (stereo partly drawn) [Compound 91]: the inhibition at 3 µM was 92%.

`COc1ccc2c(c1)CCC(NC[C@H]1CC[C@H](CNS(=O)(=O)c3ccc4ccccc4c3)CC1)C2Cc1cccc(Cl)c1` (stereo partly drawn) [Compound 93]: the inhibition at 3 µM turned out to be 60%.

For the molecule `COc1ccc2c(c1)CCC(NC[C@H]1CC[C@H](CNS(=O)(=O)c3ccc4ccccc4c3)CC1)C2Cc1cccc(C(F)(F)F)c1` (stereo partly drawn) [Compound 94], the inhibition at 3 µM amounted to 45%.

As to `COc1ccc2c(c1)CCC(NC[C@H]1CC[C@H](CNS(=O)(=O)c3ccccc3)CC1)C2Cc1ccccc1C(F)(F)F` (stereo partly drawn) [Compound 98], the inhibition at 3 µM was determined as 30%.

For `COc1ccc2c(c1)CCC(NC[C@H]1CC[C@H](CNS(=O)(=O)c3ccccc3)CC1)C2Cc1cccc(C(F)(F)F)c1` (stereo partly drawn) [Compound 99], the inhibition at 3 µM is 99%.

Turning to `COc1ccc2c(c1)CCC(NC[C@H]1CC[C@H](CNS(=O)(=O)c3ccccc3)CC1)C2Cc1ccc(C(F)(F)F)cc1` (stereo partly drawn) [Compound 100], the inhibition at 3 µM came out at 93%.

As to `O=S(=O)(NC[C@H]1CC[C@H](CNC2CCc3ccc(Cl)cc3C2Cc2ccccc2)CC1)c1ccccc1` (stereo partly drawn) [Compound 104], the inhibition at 3 µM stood at 97%.
